Reference: patent US11759471B2, “Modified release pharmaceutical composition and method for the treatment of mental disorders” (MEDICAL AND PHARMACEUTICAL INDUSTRY TECHNOLOGY AND …, priority 2019, dated 2023)

Tests used:
[1] = In vitro dissolution test, USP Apparatus 2 (paddle); assay type: physicochemical; conditions: FIG. 1, 3 mg paliperidone in raw form
Description: In vitro dissolution test was conducted in a USP Apparatus 2 (paddle) at 37±0.5° C., 50 rpm, in a solution having 750 mL of 0.1 N HCl and 1000 mL of pH 6.8 buffer
FIG. 1 discloses the dissolution release amount for 25 mg quetiapine in tablet of reference listed drug, 3 mg paliperidone in raw form.

[2] = Dissolution of methacrylic acid coated samples in pH1.2 solvent; assay type: physicochemical; conditions: methacrylic acid coated samples with different encapsulation efficiency
Description: Further use carried out with different encapsulation efficiency of experiments, and the samples with different encapsulation efficiency were test pH1.2 solvent dissolve. At the same time, it can be known that the results of the dissolution rate of paliperidone within 2 hours is not more than 10%. The present invention can be achieved effect of delayed release of paliperidone.

[3] = as measured by blood concentration; cited from earlier work

- dissolution amount of paliperidone after pH change ([1]; after 120 minutes, pH increased from 1.2 to 6.8, slightly decreased): above 100%
- dissolution amount of paliperidone ([1]; less than 10 minutes, then maintained, pH 1.2): above 100%
- dissolution rate of paliperidone within 2 hours [2]: not more than 10%
SMILES: Cc1nc2n(c(=O)c1CCN1CCC(c3noc4cc(F)ccc34)CC1)CCCC2O (stereo not shown) [paliperidone]
- half-life in patients' blood [3]: 20 to 28 h
